System: 743489-274-T-PDC complex spheroid viability
Test: Anticancer human tumor 743489-274-T-PDC patient-derived renal cell carcinoma cell line growth inhibition
Settings: for IC50: curve of first compound; for viability, T/C: stronger effect = lower value
Text: Multicellular complex tumor spheroid response to LSD1 Inhibitor Iadademstat in combination with a variety of drugs and investigational agents in selected tumor cell lines
The current study was undertaken to assess response to LSD1 inhibitors in combination with standard-of-care drugs and investigational agents in solid tumor complex spheroid models as well as in the K-562 leukemia. Complex spheroids include a stromal component modeled by human endothelial cells (HUVEC) and fibroblasts modeled by human mesenchymal stem cells (MSCs). The concentration ranges selected for each drug and investigational agent were based upon clinically achievable concentrations if the clinical Cmax of the agent was known.
Compounds. The drugs and investigational agents used in this study are listed on Table 1. All of the agents used, including staurosporine (NSC755774) and gemcitabine (NSC613327), were obtained from the Developmental Therapeutics Program, NCI. FDA-approved anticancer drugs are available from the NCI at http://dtp.nci.nih.gov/branches/dscb/oncology_drugset_explanation.html. Drugs and investigational agents were >95% pure by proton nuclear magnetic resonance (NMR) and liquid chromatography/mass spectrometry (LC/MS). Stock solutions were prepared at 400x in DMSO, stored at -70 degrees C, and diluted in fresh medium prior to their use. The final concentration of DMSO in cell culture wells never exceeded 0.25% (v/v). The FDA-approved anticancer drug set is available from the Developmental Therapeutics Program at https://dtp.cancer.gov/organization/dscb/obtaining/available_plates.htm. All drugs and investigational agents were tested over a range starting from a high concentration at or near the clinical Cmax and decreasing in half-log increments. If the clinical Cmax for an agent had not been determined, the highest concentration tested was 10 microM.
Cell Lines. The patient-derived cancer cell (PDC) lines: 292921-168-R-J2-PDC, K24384-001-R-PDC, and 521955-158-R2-J5-PDC pancreatic carcinomas, 556581-035-R-J1 ovarian carcinoma, 324938-238-R-J1-PDC, 855422-203-R-J1-PDC and 883617-216-R-J1-PDC urothelial bladder carcinomas, 743489-274-T-PDC renal cell carcinoma, 138582-R-J1 Merkel cell tumor, K60290-347-R-J1 and K57222-313-R-J1-PDC glioblastomas, 653999-131-R-J2-PDC, LG0703-F948-PDC, and 349418-098-R-PDC non-small cell lung carcinomas, 885512-296-R-J2-PDC, 171881-019-R-J1-PDC breast carcinomas and 186277-243-T-J2-PDC and 233499-124-R-J2-PDC colon carcinomas were obtained from the NCI Patient-Derived Models Repository (PDMR, https://pdmr.cancer.gov). The established cell lines NCI/ADR-RES (RRID:CVCL_14520 and OVCAR-5 (RRID:CVCL_1628) ovarian carcinomas, 786-O (RRID:CVCL_1051) and A498 (RRID:CVCL_A498) renal cell carcinoma, NCI-H211 (ATCC, cat. CRL-5824; RRID:CVCL_1529), NCI-H196 (ATCC, cat. CRL-5823, RRID:CVCL_1509), SW 1271 (ATCC, cat. CRL-2177, RRID:CVCL_1716) and NCI-H1876 (ATCC, cat. CRL-5902, RRID:CVCL_1503) small cell lung carcinomas, MDA-MB-231 (RRID:CVCL_0062) and MDA-MB-468 (RRID:CVCL_0419)breast carcinomas (10-12). Pooled donor human umbilical vein endothelial cells (HUVEC, Lonza, cat. CC-2519) and human mesenchymal stem cells (hMSC, Lonza, cat. PT-2501) were purchased from Lonza (Walkersville, MD).
Cell Culture. All cells were maintained in an incubator at 37 degrees C and 5% CO2 with 95% humidity. The PDC lines were cultured according to standard operating procedures established by the NCI PDMR (https://pdmr.cancer.gov). Briefly all PDCs were thawed and cultured in Matrigel-coated flasks prepared with a working solution of 1X Ham's F-12 nutrient mix, without supplementation (Invitrogen, Waltham, MA, cat. 11765054), 100 U/mL penicillin-streptomycin (Invitrogen, cat. 15140122), and 2.5% Matrigel (Corning Inc., Corning, NY, cat. 354248) for the first three passages. […]

[1] = second compound 0.1 µM, first compound 0.00316 µM
[2] = second compound 0.1 µM, first compound 0.01 µM
[3] = second compound 0.1 µM, first compound 0.0316 µM
[4] = second compound 0.1 µM, first compound 0.1 µM
[5] = second compound 0.316 µM, first compound 0.00316 µM
[6] = second compound 0.316 µM, first compound 0.01 µM
[7] = second compound 0.316 µM, first compound 0.0316 µM
[8] = second compound 0.316 µM, first compound 0.1 µM
[9] = second compound 1 µM, first compound 0.00316 µM
[10] = second compound 1 µM, first compound 0.01 µM
[11] = second compound 1 µM, first compound 0.0316 µM
[12] = second compound 1 µM, first compound 0.1 µM
[13] = second compound 3.16 µM, first compound 0.00316 µM
[14] = second compound 3.16 µM, first compound 0.01 µM
[15] = second compound 3.16 µM, first compound 0.0316 µM
[16] = second compound 3.16 µM, first compound 0.1 µM
[17] = second compound 10 µM, first compound 0.00316 µM
[18] = second compound 10 µM, first compound 0.01 µM
[19] = second compound 10 µM, first compound 0.0316 µM
[20] = second compound 10 µM, first compound 0.1 µM
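Further: spheroids exposed to compounds for 7 days before readout.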
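Wherever viability, T/C is given: 100% = DMSO vehicle control wells.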

Work on `CC[C@@]1(O)C(=O)OCc2c1cc1n(c2=O)Cc2cc3c(CN(C)C)c(O)ccc3nc2-1` + NC1CC1c1ccc(-c2cccc(O)c2)cc1 yielded an IC50 (second compound 0.1 µM) greater than 100 nM, an IC50 (second compound 0.316 µM) greater than 100 nM and an IC50 (second compound 1 µM) greater than 100 nM. For the same compound, the IC50 (second compound 3.16 µM) was 58.7 nM, the IC50 (second compound 10 µM) was greater than 100 nM and the viability, T/C (second compound 0.1 µM, first compound 0.000316 µM) was 98.9%. For the same compound, the viability, T/C (second compound 0.1 µM, first compound 0.001 µM) was 95.7%, the viability, T/C [1] was 104% and the viability, T/C [2] was 97.8%. For the same compound, the viability, T/C [3] was 66.4%, the viability, T/C [4] was 55.7% and the viability, T/C (second compound 0.316 µM, first compound 0.000316 µM) was 103%. For the same compound, the viability, T/C (second compound 0.316 µM, first compound 0.001 µM) was 99.6%, the viability, T/C [5] was 89.7% and the viability, T/C [6] was 74.3%. It also gave a viability, T/C [7] of 67.9%, a viability, T/C [8] of 53.9% and a viability, T/C (second compound 1 µM, first compound 0.000316 µM) of 97.7%. The viability, T/C (second compound 1 µM, first compound 0.001 µM) was 100%, the viability, T/C [9] was 80% and the viability, T/C [10] was 76.3%. The viability, T/C [11] was 68.5%, the viability, T/C [12] was 55.3% and the viability, T/C (second compound 3.16 µM, first compound 0.000316 µM) was 101%. For the same compound, the viability, T/C (second compound 3.16 µM, first compound 0.001 µM) was 86.7%, the viability, T/C [13] was 78.3% and the viability, T/C [14] was 69.9%. It also gave a viability, T/C [15] of 53.8%, a viability, T/C [16] of 45% and a viability, T/C (second compound 10 µM, first compound 0.000316 µM) of 120%. For the same compound, the viability, T/C (second compound 10 µM, first compound 0.001 µM) was 93%, the viability, T/C [17] was 90.6% and the viability, T/C [18] was 70.5%. It also gave a viability, T/C [19] of 77.6% and a viability, T/C [20] of 50.3%.
`COc1cc(C2c3cc4c(cc3C(OC3OC5COC(C)OC5C(O)C3O)C3COC(=O)C23)OCO4)cc(OC)c1O` (stereo not given) + NC1CC1c1ccc(-c2cccc(O)c2)cc1 showed an IC50 (second compound 0.1 µM) greater than 3000 nM, an IC50 (second compound 0.316 µM) greater than 3000 nM and an IC50 (second compound 1 µM) greater than 3000 nM. The IC50 (second compound 3.16 µM) was greater than 3000 nM, the IC50 (second compound 10 µM) was greater than 3000 nM and the viability, T/C (second compound 0.1 µM, first compound 0.00949 µM) was 107%. It also gave a viability, T/C (second compound 0.1 µM, first compound 0.03 µM) of 91.7%, a viability, T/C (second compound 0.1 µM, first compound 0.0949 µM) of 98% and a viability, T/C (second compound 0.1 µM, first compound 0.3 µM) of 88.7%. It also gave a viability, T/C (second compound 0.1 µM, first compound 0.949 µM) of 77.6%, a viability, T/C (second compound 0.1 µM, first compound 3 µM) of 76.9% and a viability, T/C (second compound 0.316 µM, first compound 0.00949 µM) of 103%. It also gave a viability, T/C (second compound 0.316 µM, first compound 0.03 µM) of 99.5%, a viability, T/C (second compound 0.316 µM, first compound 0.0949 µM) of 91.9% and a viability, T/C (second compound 0.316 µM, first compound 0.3 µM) of 76.7%. The viability, T/C (second compound 0.316 µM, first compound 0.949 µM) was 74.6%, the viability, T/C (second compound 0.316 µM, first compound 3 µM) was 79.7% and the viability, T/C (second compound 1 µM, first compound 0.00949 µM) was 92.8%. For the same compound, the viability, T/C (second compound 1 µM, first compound 0.03 µM) was 104%, the viability, T/C (second compound 1 µM, first compound 0.0949 µM) was 91.5% and the viability, T/C (second compound 1 µM, first compound 0.3 µM) was 92.2%. It also gave a viability, T/C (second compound 1 µM, first compound 0.949 µM) of 85.8%, a viability, T/C (second compound 1 µM, first compound 3 µM) of 76.5% and a viability, T/C (second compound 3.16 µM, first compound 0.00949 µM) of 87.9%. For the same compound, the viability, T/C (second compound 3.16 µM, first compound 0.03 µM) was 95.2%, the viability, T/C (second compound 3.16 µM, first compound 0.0949 µM) was 87.6% and the viability, T/C (second compound 3.16 µM, first compound 0.3 µM) was 87.5%. For the same compound, the viability, T/C (second compound 3.16 µM, first compound 0.949 µM) was 78.6%, the viability, T/C (second compound 3.16 µM, first compound 3 µM) was 79.3% and the viability, T/C (second compound 10 µM, first compound 0.00949 µM) was 97.2%. It also gave a viability, T/C (second compound 10 µM, first compound 0.03 µM) of 89.9%, a viability, T/C (second compound 10 µM, first compound 0.0949 µM) of 97% and a viability, T/C (second compound 10 µM, first compound 0.3 µM) of 83.9%. For the same compound, the viability, T/C (second compound 10 µM, first compound 0.949 µM) was 80.7% and the viability, T/C (second compound 10 µM, first compound 3 µM) was 70.4%.
`Nc1ncn(C2CC(O)C(CO)O2)c(=O)n1` (stereo not given) + NC1CC1c1ccc(-c2cccc(O)c2)cc1 gave an IC50 (second compound 0.1 µM) greater than 1000 nM, an IC50 (second compound 0.316 µM) greater than 1000 nM and an IC50 (second compound 1 µM) greater than 1000 nM. For the same compound, the IC50 (second compound 3.16 µM) was greater than 1000 nM, the IC50 (second compound 10 µM) was greater than 1000 nM and the viability, T/C [1] was 109%. For the same compound, the viability, T/C [2] was 101%, the viability, T/C [3] was 97.9% and the viability, T/C [4] was 95.1%. For the same compound, the viability, T/C (second compound 0.1 µM, first compound 0.316 µM) was 91.2%, the viability, T/C (second compound 0.1 µM, first compound 1 µM) was 117% and the viability, T/C [5] was 104%. For the same compound, the viability, T/C [6] was 101%, the viability, T/C [7] was 97.7% and the viability, T/C [8] was 91.5%. It also gave a viability, T/C (second compound 0.316 µM, first compound 0.316 µM) of 102%, a viability, T/C (second compound 0.316 µM, first compound 1 µM) of 95.3% and a viability, T/C [9] of 107%. For the same compound, the viability, T/C [10] was 110%, the viability, T/C [11] was 94.1% and the viability, T/C [12] was 89.6%. The viability, T/C (second compound 1 µM, first compound 0.316 µM) was 90%, the viability, T/C (second compound 1 µM, first compound 1 µM) was 93% and the viability, T/C [13] was 93.2%. For the same compound, the viability, T/C [14] was 102%, the viability, T/C [15] was 105% and the viability, T/C [16] was 88.2%. The viability, T/C (second compound 3.16 µM, first compound 0.316 µM) was 82.5%, the viability, T/C (second compound 3.16 µM, first compound 1 µM) was 86.8% and the viability, T/C [17] was 102%. The viability, T/C [18] was 126%, the viability, T/C [19] was 104% and the viability, T/C [20] was 99.7%. For the same compound, the viability, T/C (second compound 10 µM, first compound 0.316 µM) was 83.2% and the viability, T/C (second compound 10 µM, first compound 1 µM) was 88.6%.

Reference: PubChem BioAssay AID1918942 (Molecular Pharmacology Branch, DTP, NCI, 2023)
